Assay results from patent US20190350964A1, “ANTI-CANCER COMPOUNDS AND USES THEREOF” (NATIONAL UNIVERSITY OF SINGAPORE, priority 2016, published 2019).

How the values were obtained:
IM95 = experiment: MTT cytotoxicity test (GI50); assay type: cell-based; settings: Homo sapiens; IM95, cancer, gastric; MTT 72 h
Pyridoxal kinase = target: T1, Pyridoxal kinase (Homo sapiens, UniProt O00764); experiment: MS-CETSA in normal BJ cell lysates; assay type: binding; settings: lysate, 100 μM compound
T1 construct: After collecting data covering >8,000 proteins in lysates of normal BJ cells; endogenous in cells; host or cells: normal BJ cells, lysate
Protocol: (§1) Target identification was performed by cellular thermal shift assay (CETSA) coupled with quantitative mass spectrometry. In brief, normal BJ cells were lysed by combination of freeze/thaw and mechanical shearing with needle in buffer [50 mM HEPES (pH 7.5), 5 mM β-glycerophosphate, 0.1 mM Sodium Vanadate, 10 mM MgCl2, 1 mM TCEP and 1× Protease inhibitor Cocktail]. The cell debris was removed by centrifugation at 20,000 g for 20 min at 4° C. […] Each lysate was divided into 10 aliquots for heat treatment at the respective temperatures for 3 min in a 96-well thermocycler, followed by 3 min at 4° C. The lysate was centrifuged at 20,000 g for 20 min at 4° C. and the supernatant was transferred into microtubes for MS sample preparation.
(§2) After lysis, at least 100 μg of the protein (measured with a BCA assay) was subjected to reduction, denaturation and alkylation. Samples were subsequently incubated with sequencing grade LysC (Wako) and trypsin (Promega) for digestion overnight at 37° C. The digested samples were dried using a centrifugal vacuum evaporator, solubilized in 100 mM TEAB. […]
(§3) Proteins for which a low temperature plateau was not present were deleted using a cut off >0.85 for the average reading of the first three temperature points (in our experience proteins melting already at −37° C. are more prone to give false positives in a shift analysis).

AGS = experiment: MTT cytotoxicity test (GI50); assay type: cell-based; settings: Homo sapiens, cancer, gastric, MTT 72 h
DLD1 = experiment: MTT cytotoxicity test (GI50); assay type: cell-based; settings: Homo sapiens, DLD-1; DLD1, cancer, colon; MTT 72 h
[1] = target: T2, Phosphatidylinositol 5-phosphate 4-kinase type-2 gamma (Homo sapiens, UniProt Q8TBX8); experiment: MS-CETSA in normal BJ cell lysates; assay type: binding; settings: lysate, 100 μM compound
T2 construct: After collecting data covering >8,000 proteins in lysates of normal BJ cells; endogenous in cells; host or cells: normal BJ cells, lysate
Protocol: as §1, §2, §3

PIK3IP1 = experiment: qRT-PCR of PIK3IP1 mRNA in Ras- or Raf-mutant cancer cell lines; assay type: cell-based, human; settings: 2.5 and 5 μM, 24 h; compared with normal cells
Protocol: […] human […] ID NO: 11, [NT] ID NO: 12), human […] ID NO: 13, [NT] ID NO: 14), human […] ID NO: 15, [NT] ID NO: 16) and human PIK3IP1 ([NT] ID NO: 17, [NT] ID NO: 18). The TATA-binding protein (TBP) gene was used for normalization. All PCR reactions were performed in triplicate.

human normal cell lines = experiment: MTT cytotoxicity test, panel of human normal cell lines; assay type: cell-based; settings: mean over panel of human normal cell lines; MTT 72 h
HCT15 = experiment: MTT cytotoxicity test (GI50); assay type: cell-based; settings: Homo sapiens, HCT-15; HCT15, cancer, colon; MTT 72 h
Liprin-beta-1 = target: T3, Liprin-beta-1 (Homo sapiens, UniProt Q86W92); experiment: MS-CETSA in normal BJ cell lysates; assay type: binding; settings: lysate, 100 μM compound
T3 construct: After collecting data covering >8,000 proteins in lysates of normal BJ cells; endogenous in cells; host or cells: normal BJ cells, lysate
Protocol: as §1, §2, §3

[2] = system: Ras-driven glioma initiating cells (GICs); experiment: Brain slice explants (orthotopically implanted ex vivo model); parameters: species or system mouse; settings: 20 μM, 4 days
Protocol: Fifty thousand GICs were orthotopically implanted into the forebrain of wild-type mice, and at 7 days post-implantation, brain slice explants were established as previously described (Sampetrean, O. et al., Neoplasia 13: 784-791 (2011)). […] Images were acquired on an FV10i Olympus confocal microscope (Olympus) and tumor area was quantified by Nikon NIS-element software. Experiments were performed in triplicate. At the end of the experiment (Day 4), slices were fixed overnight in 4% paraformaldehyde, embedded in paraffin and then sectioned at a thickness of 4 μm. Deparaffinized sections were stained with rabbit polyclonal antibody against cleaved caspase 3 (Cell Signaling). Immune complexes were detected using Histofine (Nichirei Biosciences) and ImmPACTDAB (Vector Laboratories). All animal experiments were performed in accordance with the animal care guidelines of Keio University.

BJ normal = experiment: MTT cytotoxicity test (GI50); assay type: cell-based; settings: Homo sapiens, skin, MTT 72 h
MDA-MB-231 = experiment: MTT cytotoxicity test (GI50); assay type: cell-based; settings: Homo sapiens; MDA-MB-231, cancer, breast; MTT 72 h
Hep3 = experiment: MTT cytotoxicity test (GI50); assay type: cell-based; settings: Homo sapiens; Hep3, cancer, liver; MTT 72 h
SNU-16 = experiment: MTT cytotoxicity test (GI50); assay type: cell-based; settings: Homo sapiens; SNU-16, cancer, gastric; MTT 72 h
HGC27 = experiment: MTT cytotoxicity test (GI50); assay type: cell-based; settings: Homo sapiens, HGC-27; HGC27, cancer, gastric; MTT 72 h
[3] = target: T4, 3-hydroxybutyrate dehydrogenase type 2 (Homo sapiens, UniProt Q9BUT1); experiment: MS-CETSA in normal BJ cell lysates; assay type: binding; settings: lysate, 100 μM compound
T4 construct: After collecting data covering >8,000 proteins in lysates of normal BJ cells; endogenous in cells; host or cells: normal BJ cells, lysate
Protocol: as §1, §2, §3

MCF7 = experiment: MTT cytotoxicity test (GI50); assay type: cell-based; settings: Homo sapiens; MCF7, cancer, breast; MTT 72 h

T4 sequence (Q9BUT1 whole entry): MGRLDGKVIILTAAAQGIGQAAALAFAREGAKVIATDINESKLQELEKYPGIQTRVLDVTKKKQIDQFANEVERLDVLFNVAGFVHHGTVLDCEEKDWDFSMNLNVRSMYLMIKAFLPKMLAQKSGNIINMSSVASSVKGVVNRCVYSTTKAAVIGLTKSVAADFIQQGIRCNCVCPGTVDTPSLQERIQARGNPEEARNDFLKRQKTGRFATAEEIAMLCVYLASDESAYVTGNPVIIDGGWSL
T2 sequence (Q8TBX8 whole entry): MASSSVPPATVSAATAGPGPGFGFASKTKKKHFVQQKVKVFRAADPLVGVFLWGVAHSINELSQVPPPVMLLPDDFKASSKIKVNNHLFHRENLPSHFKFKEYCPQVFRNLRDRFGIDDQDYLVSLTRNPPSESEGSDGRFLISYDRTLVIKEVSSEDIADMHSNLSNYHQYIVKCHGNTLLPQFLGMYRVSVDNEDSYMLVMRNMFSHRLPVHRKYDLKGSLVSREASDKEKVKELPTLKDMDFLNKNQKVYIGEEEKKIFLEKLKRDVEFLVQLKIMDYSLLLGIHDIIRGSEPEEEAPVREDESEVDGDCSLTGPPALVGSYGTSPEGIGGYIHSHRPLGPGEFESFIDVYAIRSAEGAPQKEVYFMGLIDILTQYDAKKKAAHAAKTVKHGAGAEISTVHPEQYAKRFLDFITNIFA
T3 sequence (Q86W92 whole entry): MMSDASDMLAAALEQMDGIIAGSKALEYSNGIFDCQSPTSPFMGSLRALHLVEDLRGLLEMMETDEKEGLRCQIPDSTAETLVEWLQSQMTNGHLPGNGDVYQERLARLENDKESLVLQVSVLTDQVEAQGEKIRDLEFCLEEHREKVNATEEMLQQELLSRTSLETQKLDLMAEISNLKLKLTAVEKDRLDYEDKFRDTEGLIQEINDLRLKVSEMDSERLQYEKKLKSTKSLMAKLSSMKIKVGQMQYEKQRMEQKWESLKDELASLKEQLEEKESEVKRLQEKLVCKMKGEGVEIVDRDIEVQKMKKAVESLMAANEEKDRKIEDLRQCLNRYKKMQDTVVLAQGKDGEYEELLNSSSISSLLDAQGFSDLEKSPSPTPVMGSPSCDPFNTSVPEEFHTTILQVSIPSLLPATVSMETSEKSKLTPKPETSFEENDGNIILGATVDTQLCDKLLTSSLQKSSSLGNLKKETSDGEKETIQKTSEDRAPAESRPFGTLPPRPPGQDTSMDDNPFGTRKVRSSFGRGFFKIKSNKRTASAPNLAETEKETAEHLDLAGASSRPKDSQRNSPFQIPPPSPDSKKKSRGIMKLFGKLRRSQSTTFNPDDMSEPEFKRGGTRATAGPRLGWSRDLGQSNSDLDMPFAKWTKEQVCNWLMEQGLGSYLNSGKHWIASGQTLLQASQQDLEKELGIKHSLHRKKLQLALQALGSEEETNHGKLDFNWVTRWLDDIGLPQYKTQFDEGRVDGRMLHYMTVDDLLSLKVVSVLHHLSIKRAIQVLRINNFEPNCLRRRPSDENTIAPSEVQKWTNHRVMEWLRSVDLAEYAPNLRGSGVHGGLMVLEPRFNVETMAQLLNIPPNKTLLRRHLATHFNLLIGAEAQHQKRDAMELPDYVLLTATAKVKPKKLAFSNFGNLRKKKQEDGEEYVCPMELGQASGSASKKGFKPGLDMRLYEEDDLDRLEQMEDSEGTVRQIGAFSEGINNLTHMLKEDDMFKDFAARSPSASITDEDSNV
T1 sequence (O00764 whole entry): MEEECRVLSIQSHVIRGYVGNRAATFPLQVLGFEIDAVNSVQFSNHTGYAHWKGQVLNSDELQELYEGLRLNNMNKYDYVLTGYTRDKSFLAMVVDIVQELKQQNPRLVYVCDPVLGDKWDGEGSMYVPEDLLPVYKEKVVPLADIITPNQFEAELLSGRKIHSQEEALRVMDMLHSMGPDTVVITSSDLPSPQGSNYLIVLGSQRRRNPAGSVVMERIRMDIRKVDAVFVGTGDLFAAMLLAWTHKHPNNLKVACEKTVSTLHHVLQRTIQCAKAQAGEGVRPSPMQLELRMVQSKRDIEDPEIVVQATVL

**Q.** How did the GI50 (IM95) turn out when `N#C/C(=C\c1cccc2cnccc12)c1c[nH]c2ccccc12` [a131, (Z)-2-(1H-indol-3-yl)-3-(5-isoquinolyl)prop-2-enenitrile] was run?
**A.** The GI50 was 1000 nM.

**Q.** What about the ED score (Pyridoxal kinase) of the same compound?
**A.** The ED score was 0.4486.

**Q.** And the ΔTm at 100 µM (Pyridoxal kinase; read-out: mean Delta Tm)?
**A.** Its ΔTm at 100 µM is 2.01 °C.

**Q.** What about the GI50 (AGS) of the same compound?
**A.** Its GI50 is 1100 nM.

**Q.** And the GI50 (DLD1)?
**A.** Its GI50 is 1200 nM.

**Q.** What about the ED score [1] of the same compound?
**A.** The ED score was 0.5989.

**Q.** What about the ΔTm at 100 µM ([1]; read-out: mean Delta Tm) of the same compound?
**A.** The ΔTm at 100 µM was 2.89 °C.

**Q.** And the “induction of PIK3IP1 in Ras- and Raf-mutant cancer cells” value (PIK3IP1)?
**A.** Its value is “significantly attenuated”.

**Q.** What about the GI50 (human normal cell lines) of the same compound?
**A.** Its GI50 is 6500 nM.

**Q.** What about the GI50 (HCT15) of the same compound?
**A.** Its GI50 is 500 nM.

**Q.** And the ED score (Liprin-beta-1)?
**A.** Its ED score is 0.3387.

**Q.** And the ΔTm at 100 µM (Liprin-beta-1; read-out: mean Delta Tm)?
**A.** The ΔTm at 100 µM was 2.07 °C.

**Q.** And the “apoptosis (cleaved caspase-3) in tumor versus surrounding normal tissue” value [2]?
**A.** The value was “induced apoptosis only in tumors, but not surrounding normal tissues”.

**Q.** What about the “tumor growth of GICs in brain explants (Day 4/Day 0)” value [2] of the same compound?
**A.** The value was “significantly suppressed growth”.

**Q.** And the GI50 (BJ normal)?
**A.** Its GI50 is 8100 nM.

**Q.** And the GI50 (MDA-MB-231)?
**A.** Its GI50 is 1100 nM.

**Q.** And the GI50 (Hep3)?
**A.** Its GI50 is 3700 nM.

**Q.** And the GI50 (SNU-16)?
**A.** Its GI50 is 1000 nM.

**Q.** What about the GI50 (HGC27) of the same compound?
**A.** Its GI50 is 1200 nM.

**Q.** What about the ED score [3] of the same compound?
**A.** The ED score was 0.5139.

**Q.** What about the ΔTm at 100 µM ([3]; read-out: mean Delta Tm) of the same compound?
**A.** Its ΔTm at 100 µM is 1.83 °C.

**Q.** And the GI50 (MCF7)?
**A.** Its GI50 is 1200 nM.
